Test results published in ChEMBL document CHEMBL1152531, “Amphotericin B-induced ion flux is markedly attenuated in phosphatidylglycerol membrane as evidenced by a newly devised fluorometric method” (Bioorg Med Chem, 2009).
Calls of active or inactive are those of the source. The rule behind the calls is not given here.

Tests used:
[1] = Membrane permeabilizing activity across cholesterol-containing 1-palmitoyl-2-oleoyl-sn-glycero-3-phosphocholine liposome assessed as K+ ion influx at compound to lipid ratio of 0.0001 to 0.001 after 18 hrs by BCECF staining-based fluorometric method; assay type: physicochemical; conditions: artificial membrane
[2] = Binding affinity to bilayer membrane of 1-palmitoyl-2-oleoyl-sn-glycero-3-phosphatidylglycerol and 30% 1-palmitoyl-2-oleoyl-sn-glycero-3-phosphocholine at 6.3 uM after 18 hrs by UV spectroscopy
[3] = (§1) Membrane permeabilizing activity across large unilamellar vesicle containing 1-palmitoyl-2-oleoyl-sn-glycero-3-phosphatidylglycerol and 10% 1-palmitoyl-2-oleoyl-sn-glycero-3-phosphocholine assessed as K+ ion influx at compound to lipid ratio of 0.001 to 0.01 after 18 hrs by BCECF staining-based fluorometric method; assay type: physicochemical
[4] = as §1, with “30%” for “10%”; assay type: physicochemical
[5] = Membrane permeabilizing activity across 1-palmitoyl-2-oleoyl-sn-glycero-3-phosphocholine liposome assessed as K+ ion influx at compound to lipid ratio of 0.0001 to 0.001 after 18 hrs by BCECF staining-based fluorometric method; assay type: physicochemical; conditions: artificial membrane
[6] = Membrane permeabilizing activity across ergosterol-containing 1-palmitoyl-2-oleoyl-sn-glycero-3-phosphocholine liposome assessed as K+ ion influx at compound to lipid ratio of 0.0001 to 0.001 after 18 hrs by BCECF staining-based fluorometric method; assay type: physicochemical; conditions: artificial membrane
Lipid bilayer [7] = test: Binding affinity to 1-palmitoyl-2-oleoyl-sn-glycero-3-phosphocholine bilayer membrane at 6.3 uM after 18 hrs by UV spectroscopy
Lipid bilayer [8] = test: Binding affinity to 1-palmitoyl-2-oleoyl-sn-glycero-3-phosphatidylglycerol bilayer membrane at 6.3 uM after 18 hrs by UV spectroscopy
[9] = Membrane permeabilizing activity across 1-palmitoyl-2-oleoyl-sn-glycero-3-phosphocholine liposome assessed as K+ ion influx at compound to lipid ratio of 0.001 to 0.01 after 18 hrs by BCECF staining-based fluorometric method; assay type: physicochemical; conditions: artificial membrane
[10] = Membrane permeabilizing activity across 1-palmitoyl-2-oleoyl-sn-glycero-3-phosphatidylglycerol liposome assessed as K+ ion influx at compound to lipid ratio of 0.001 to 0.01 after 18 hrs by BCECF staining-based fluorometric method; assay type: physicochemical; conditions: artificial membrane

Activity [1]: Not Active | Activity [2]: Active | Activity [3]: Active | Activity [4]: Active | Activity [5]: Not Active | Activity [6]: Active | Activity (Lipid bilayer [7]): Active | Activity (Lipid bilayer [8]): Active | Activity [9]: Active | Activity [10]: Not Active
SMILES: C[C@@H]1[C@H](O)[C@@H](C)/C=C/C=C/C=C/C=C/C=C/C=C/C=C/[C@H](O[C@@H]2O[C@H](C)[C@@H](O)[C@H](N)[C@@H]2O)C[C@@H]2O[C@](O)(C[C@@H](O)C[C@@H](O)[C@H](O)CC[C@@H](O)C[C@@H](O)CC(=O)O[C@H]1C)C[C@H](O)[C@H]2C(=O)O [AMPHOTERICIN B]
